# According to ChEMBL document CHEMBL4316588, “Design, Synthesis, and Biological Evaluation of Novel DNA Gyrase-Inhibiting Spiropyrimidinetriones as Potent Antibiotics for Treatment of Infections Caused by Multidrug-Resistant Gram-Positive Bacteria” (J Med Chem, 2019):
# Legend:
# [1] = Elimination half life in CD1 mouse at 10 mg/kg, po by LC-MS/MS analysis; type: ADME, organism-based; conditions: in vivo, read-out: beta t1/2 (converted)
# Streptococcus pyogenes = assay: Antibacterial activity against Streptococcus pyogenes after 18 to 20 hrs by CLSI-protocol based broth microdilution method; type: functional
# [2] = Solubility of the compound in pH 6.8 intestinal juice incubated at 37 degC for 24 hrs by LC/MS/MS analysis; type: physicochemical
# Streptococcus pneumoniae = assay: Antibacterial activity against penicillin-resistant Streptococcus pneumoniae after 18 to 20 hrs by CLSI-protocol based broth microdilution method; type: functional
# [3] = Solubility of the compound in pH 1.2 gastric juice incubated at 37 degC for 24 hrs by LC/MS/MS analysis; type: physicochemical
# Staphylococcus aureus [4] = assay: Antibacterial activity against methicillin-resistant Staphylococcus aureus after 18 to 20 hrs by CLSI-protocol based broth microdilution method; type: functional
# [5] = Cmax in CD1 mouse at 10 mg/kg, po by LC-MS/MS analysis; type: ADME, organism-based; set-up: dose 10 mg/kg, route oral; conditions: in vivo
# [6] = test system: Staphylococcus epidermidis; assay: Antibacterial activity against methicillin-resistant Staphylococcus epidermidis after 18 to 20 hrs by CLSI-protocol based broth microdilution method; type: functional
# [7] = biological target: DNA topoisomerase 2-alpha (Homo sapiens, UniProt P11388); assay: Inhibition of human topoisomerase-2alpha using catenated DNA as substrate after 30 mins by ethidium bromide-based gel electrophoresis
# DNA topoisomerase 2-alpha, sequence (P11388 whole entry): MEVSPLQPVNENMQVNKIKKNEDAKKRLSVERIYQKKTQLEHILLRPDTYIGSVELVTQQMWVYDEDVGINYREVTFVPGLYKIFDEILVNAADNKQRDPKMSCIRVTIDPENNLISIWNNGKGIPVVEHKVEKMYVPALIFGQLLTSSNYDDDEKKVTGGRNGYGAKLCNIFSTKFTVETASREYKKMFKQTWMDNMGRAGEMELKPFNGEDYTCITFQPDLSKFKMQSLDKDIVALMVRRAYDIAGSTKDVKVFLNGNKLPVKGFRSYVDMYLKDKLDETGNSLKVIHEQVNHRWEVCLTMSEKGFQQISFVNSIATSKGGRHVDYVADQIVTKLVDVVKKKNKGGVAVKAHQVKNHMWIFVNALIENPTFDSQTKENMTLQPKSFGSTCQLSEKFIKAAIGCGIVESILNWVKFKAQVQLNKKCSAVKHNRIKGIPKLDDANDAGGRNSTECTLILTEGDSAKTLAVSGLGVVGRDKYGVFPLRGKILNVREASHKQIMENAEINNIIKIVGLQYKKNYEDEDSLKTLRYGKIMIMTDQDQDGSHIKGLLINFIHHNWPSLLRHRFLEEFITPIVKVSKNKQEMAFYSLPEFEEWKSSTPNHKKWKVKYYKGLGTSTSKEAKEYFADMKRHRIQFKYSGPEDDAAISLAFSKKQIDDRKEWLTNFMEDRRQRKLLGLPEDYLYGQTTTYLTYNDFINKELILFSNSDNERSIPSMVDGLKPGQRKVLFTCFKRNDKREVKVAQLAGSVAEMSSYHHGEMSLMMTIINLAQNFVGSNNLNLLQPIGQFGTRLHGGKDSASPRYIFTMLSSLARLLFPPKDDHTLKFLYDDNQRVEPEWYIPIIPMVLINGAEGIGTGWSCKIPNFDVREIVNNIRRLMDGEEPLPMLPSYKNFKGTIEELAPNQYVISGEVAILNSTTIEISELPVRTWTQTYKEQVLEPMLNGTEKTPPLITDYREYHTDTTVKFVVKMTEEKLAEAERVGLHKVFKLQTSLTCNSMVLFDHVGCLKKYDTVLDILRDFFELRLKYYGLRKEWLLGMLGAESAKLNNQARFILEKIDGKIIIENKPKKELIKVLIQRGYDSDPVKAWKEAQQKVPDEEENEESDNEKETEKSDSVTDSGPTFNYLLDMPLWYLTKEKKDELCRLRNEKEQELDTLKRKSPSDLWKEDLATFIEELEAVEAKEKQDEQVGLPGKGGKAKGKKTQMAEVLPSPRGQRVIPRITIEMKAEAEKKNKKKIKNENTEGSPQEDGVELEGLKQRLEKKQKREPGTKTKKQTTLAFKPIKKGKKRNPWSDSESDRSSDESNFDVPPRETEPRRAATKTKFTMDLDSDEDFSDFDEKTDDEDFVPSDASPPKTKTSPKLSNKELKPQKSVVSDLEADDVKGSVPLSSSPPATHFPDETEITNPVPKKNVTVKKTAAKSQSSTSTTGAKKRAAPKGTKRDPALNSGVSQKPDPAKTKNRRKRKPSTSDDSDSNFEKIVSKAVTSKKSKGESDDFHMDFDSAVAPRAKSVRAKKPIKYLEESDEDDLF
# Staphylococcus aureus [8] = assay: Antibacterial activity against methicillin-sensitive Staphylococcus aureus after 18 to 20 hrs by CLSI-protocol based broth microdilution method; type: functional; conditions: Staphylococcus aureus; read-out: MIC
# [9] = Solubility of the compound in water incubated at 37 degC for 24 hrs by LC/MS/MS analysis; type: physicochemical
# Neisseria gonorrhoeae = assay: Antibacterial activity against Neisseria gonorrhoeae after 18 to 20 hrs by CLSI-protocol based agar microdilution method; type: functional
# Staphylococcus aureus [10] = assay: Antibacterial activity against methicillin-resistant Staphylococcus aureus infected in Kunming mouse treated with 50 mg/kg cytochrome P450 inhibitor ABT dosed subcutaneously at 0.5 and 4.0 hrs postinfection followed by and measured at 7 to 14 days post treatment by Bliss method; type: functional; conditions: sc
# [11] = Tmax in CD1 mouse at 10 mg/kg, po by LC-MS/MS analysis; type: ADME, organism-based; conditions: in vivo
# DNA gyrase = DNA gyrase (Staphylococcus aureus, UniProt P0A0K8+P20831)
# DNA gyrase, sequence (P0A0K8 whole entry): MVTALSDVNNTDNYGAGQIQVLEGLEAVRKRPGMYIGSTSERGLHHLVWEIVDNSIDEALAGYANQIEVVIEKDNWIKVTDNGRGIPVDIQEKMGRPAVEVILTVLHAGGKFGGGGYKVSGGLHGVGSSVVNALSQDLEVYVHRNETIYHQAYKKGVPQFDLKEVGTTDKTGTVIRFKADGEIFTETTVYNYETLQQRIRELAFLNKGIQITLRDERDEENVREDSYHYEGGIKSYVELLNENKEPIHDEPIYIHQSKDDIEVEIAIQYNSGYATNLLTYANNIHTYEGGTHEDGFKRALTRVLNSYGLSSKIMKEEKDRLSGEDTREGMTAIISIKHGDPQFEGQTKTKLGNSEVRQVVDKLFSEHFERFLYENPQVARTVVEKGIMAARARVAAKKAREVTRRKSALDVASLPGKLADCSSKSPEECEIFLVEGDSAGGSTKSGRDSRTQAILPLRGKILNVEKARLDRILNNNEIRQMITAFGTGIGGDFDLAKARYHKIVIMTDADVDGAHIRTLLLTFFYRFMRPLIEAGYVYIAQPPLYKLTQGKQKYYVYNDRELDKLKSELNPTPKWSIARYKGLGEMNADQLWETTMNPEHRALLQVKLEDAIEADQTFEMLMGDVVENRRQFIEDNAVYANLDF
# DNA gyrase, sequence (P20831 whole entry): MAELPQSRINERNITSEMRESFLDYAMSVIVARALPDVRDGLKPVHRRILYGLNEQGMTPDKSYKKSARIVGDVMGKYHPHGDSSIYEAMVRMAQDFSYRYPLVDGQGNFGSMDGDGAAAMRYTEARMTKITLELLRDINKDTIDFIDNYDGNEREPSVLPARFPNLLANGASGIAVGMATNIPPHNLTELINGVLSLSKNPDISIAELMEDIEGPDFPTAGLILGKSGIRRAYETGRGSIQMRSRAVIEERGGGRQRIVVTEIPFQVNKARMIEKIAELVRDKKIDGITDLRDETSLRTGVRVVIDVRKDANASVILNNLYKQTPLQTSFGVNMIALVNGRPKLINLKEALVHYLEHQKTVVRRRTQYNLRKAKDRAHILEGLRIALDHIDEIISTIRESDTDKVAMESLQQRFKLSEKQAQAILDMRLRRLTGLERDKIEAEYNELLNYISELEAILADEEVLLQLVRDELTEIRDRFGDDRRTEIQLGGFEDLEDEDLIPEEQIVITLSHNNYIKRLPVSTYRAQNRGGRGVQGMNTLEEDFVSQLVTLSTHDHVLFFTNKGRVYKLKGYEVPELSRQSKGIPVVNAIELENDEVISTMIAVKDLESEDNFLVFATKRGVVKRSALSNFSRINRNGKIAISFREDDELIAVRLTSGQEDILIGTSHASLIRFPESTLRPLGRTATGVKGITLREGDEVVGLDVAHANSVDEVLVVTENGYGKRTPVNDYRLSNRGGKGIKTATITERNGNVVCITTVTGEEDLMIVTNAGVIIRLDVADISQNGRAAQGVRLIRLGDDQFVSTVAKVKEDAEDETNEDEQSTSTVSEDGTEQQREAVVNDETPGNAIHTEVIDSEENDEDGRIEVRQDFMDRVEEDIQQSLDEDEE
# Description: Inhibition of Staphylococcus aureus DNA gyrase supercoiling activity using relaxed pHOT-1 DNA as substrate after 60 mins by ethidium bromide-based gel electrophoresis
# [12] = MRT in CD1 mouse at 10 mg/kg, po by LC-MS/MS analysis; type: ADME, organism-based; conditions: in vivo
# [13] = test system: Staphylococcus epidermidis; assay: Antibacterial activity against methicillin-sensitive Staphylococcus epidermidis after 18 to 20 hrs by CLSI-protocol based broth microdilution method; type: functional
# Staphylococcus aureus [14] = assay: Antibacterial activity against methicillin-sensitive Staphylococcus aureus infected in Kunming mouse treated with 50 mg/kg cytochrome P450 inhibitor ABT dosed subcutaneously at 0.5 and 4.0 hrs postinfection followed by and measured at 7 to 14 days post treatment by Bliss method; type: functional; conditions: sc
# [15] = AUCt in CD1 mouse at 10 mg/kg, po by LC-MS/MS analysis; type: ADME, organism-based; conditions: in vivo
# [16] = Elimination half life in Sprague-Dawley rat at 10 mg/kg, po by LC-MS/MS analysis; type: ADME, organism-based; conditions: in vivo, read-out: beta t1/2 (converted)
# [17] = Cmax in Beagle dog at 5 mg/kg, po by LC-MS/MS analysis; type: ADME, organism-based, Canis lupus familiaris; set-up: dose 5 mg/kg, route oral; conditions: in vivo
# Cytochrome P450 3A4 [18] = biological target: T1, Cytochrome P450 3A4 (Homo sapiens, UniProt P08684); assay: Inhibition of CYP3A4 in human liver microsomes using testosterone as substrate preincubated for 10 mins followed by NADPH addition and measured for 15 mins by LC-MS/MS analysis; type: ADME
# T1 sequence (P08684 whole entry): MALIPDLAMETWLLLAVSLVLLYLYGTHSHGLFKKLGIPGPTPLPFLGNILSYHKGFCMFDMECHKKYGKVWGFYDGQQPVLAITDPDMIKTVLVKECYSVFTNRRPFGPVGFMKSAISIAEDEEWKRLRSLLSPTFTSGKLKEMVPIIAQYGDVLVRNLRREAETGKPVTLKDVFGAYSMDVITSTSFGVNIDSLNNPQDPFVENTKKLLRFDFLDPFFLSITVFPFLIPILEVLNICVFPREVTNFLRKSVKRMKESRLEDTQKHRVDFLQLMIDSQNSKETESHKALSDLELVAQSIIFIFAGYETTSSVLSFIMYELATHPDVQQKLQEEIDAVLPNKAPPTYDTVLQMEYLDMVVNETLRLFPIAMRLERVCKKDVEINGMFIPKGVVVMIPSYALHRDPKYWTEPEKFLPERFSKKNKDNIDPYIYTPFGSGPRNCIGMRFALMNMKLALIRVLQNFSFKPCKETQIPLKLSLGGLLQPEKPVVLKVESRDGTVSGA
# [19] = Elimination half life in Beagle dog at 5 mg/kg, po by LC-MS/MS analysis; type: ADME, organism-based, Canis lupus familiaris; conditions: in vivo, read-out: beta t1/2 (converted)
# [20] = Cmax in Sprague-Dawley rat at 100 mg/kg, po by LC-MS/MS analysis; type: ADME, organism-based; set-up: dose 100 mg/kg, route oral; conditions: in vivo
# [21] = Cmax in Sprague-Dawley rat at 10 mg/kg, po by LC-MS/MS analysis; type: ADME, organism-based; set-up: dose 10 mg/kg, route oral; conditions: in vivo
# [22] = AUCt in Beagle dog at 2.5 mg/kg, iv by LC-MS/MS analysis; type: ADME, organism-based, Canis lupus familiaris; conditions: in vivo
# Cytochrome P450 2C19 = Cytochrome P450 2C19 (Homo sapiens, UniProt P33261); assay: Inhibition of CYP2C19 in human liver microsomes using mephenytoin as substrate preincubated for 10 mins followed by NADPH addition and measured for 15 mins by LC-MS/MS analysis; type: ADME
# Cytochrome P450 2C19, sequence (P33261 whole entry): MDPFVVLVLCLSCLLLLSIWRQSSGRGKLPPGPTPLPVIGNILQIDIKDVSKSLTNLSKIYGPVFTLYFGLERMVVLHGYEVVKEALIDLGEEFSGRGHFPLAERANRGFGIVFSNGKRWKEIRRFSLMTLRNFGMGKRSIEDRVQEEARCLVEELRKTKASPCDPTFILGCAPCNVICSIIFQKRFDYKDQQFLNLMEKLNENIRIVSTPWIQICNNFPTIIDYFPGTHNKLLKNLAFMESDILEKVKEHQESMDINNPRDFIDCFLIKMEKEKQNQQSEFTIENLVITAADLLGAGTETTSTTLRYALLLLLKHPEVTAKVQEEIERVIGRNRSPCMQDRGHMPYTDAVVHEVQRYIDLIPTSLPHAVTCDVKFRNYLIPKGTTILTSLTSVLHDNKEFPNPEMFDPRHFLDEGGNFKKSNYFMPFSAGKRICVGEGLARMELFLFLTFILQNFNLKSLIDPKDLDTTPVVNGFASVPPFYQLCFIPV
# [23] = Oral bioavailability in Sprague-Dawley rat at 10 mg/kg by LC-MS/MS analysis; type: ADME, organism-based; conditions: in vivo
# Cytochrome P450 3A4 [24] = biological target: T1, Cytochrome P450 3A4; assay: Inhibition of CYP3A4 in human liver microsomes using midazolam as substrate preincubated for 10 mins followed by NADPH addition and measured for 15 mins by LC-MS/MS analysis; type: ADME
# [25] = AUCt in Sprague-Dawley rat at 100 mg/kg, po by LC-MS/MS analysis; type: ADME, organism-based; conditions: in vivo
# Cytochrome P450 1A2 = biological target: T2, Cytochrome P450 1A2 (Homo sapiens, UniProt P05177); assay: Inhibition of CYP1A2 in human liver microsomes using phenacetin as substrate preincubated for 10 mins followed by NADPH addition and measured for 15 mins by LC-MS/MS analysis; type: ADME
# T2 sequence (P05177 whole entry): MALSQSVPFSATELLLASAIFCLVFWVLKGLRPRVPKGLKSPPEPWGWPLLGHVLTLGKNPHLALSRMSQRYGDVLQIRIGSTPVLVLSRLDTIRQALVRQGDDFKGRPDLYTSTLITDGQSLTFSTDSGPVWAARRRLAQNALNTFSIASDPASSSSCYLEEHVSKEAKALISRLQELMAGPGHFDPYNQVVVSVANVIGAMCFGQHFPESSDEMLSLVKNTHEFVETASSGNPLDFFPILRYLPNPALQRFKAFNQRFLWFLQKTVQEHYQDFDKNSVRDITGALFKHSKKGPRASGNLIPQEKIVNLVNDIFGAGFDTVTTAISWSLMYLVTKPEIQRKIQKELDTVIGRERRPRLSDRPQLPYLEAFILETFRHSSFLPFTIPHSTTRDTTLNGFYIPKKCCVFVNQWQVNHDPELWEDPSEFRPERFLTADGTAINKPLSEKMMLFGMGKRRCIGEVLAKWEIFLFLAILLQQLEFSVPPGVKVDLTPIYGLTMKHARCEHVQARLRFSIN
# [26] = biological target: Voltage-gated inwardly rectifying potassium channel KCNH2 (Homo sapiens, UniProt Q12809); assay: Inhibition of human ERG expressed in CHO cells in at -80 mV holding potential by automated Qpatch clamp assay; type: cell-based
# [27] = Oral bioavailability in Beagle dog at 5 mg/kg by LC-MS/MS analysis; type: ADME, organism-based, Canis lupus familiaris; conditions: in vivo
# Staphylococcus aureus [28] = assay: Antibacterial activity against methicillin-resistant Staphylococcus aureus infected in Kunming mouse dosed subcutaneously at 0.5 and 4.0 hrs postinfection and measured at 7 to 14 days post treatment by Bliss method; type: functional; conditions: sc
# [29] = Clearance in Sprague-Dawley rat at 10 mg/kg, iv by LC-MS/MS analysis; type: ADME, organism-based; conditions: in vivo
# [30] = AUCt in Sprague-Dawley rat at 10 mg/kg, iv by LC-MS/MS analysis; type: ADME, organism-based; conditions: in vivo
# [31] = Elimination half life in Beagle dog at 2.5 mg/kg, iv by LC-MS/MS analysis; type: ADME, organism-based, Canis lupus familiaris; conditions: in vivo, read-out: beta t1/2 (converted)
# [32] = AUCt in Beagle dog at 5 mg/kg, po by LC-MS/MS analysis; type: ADME, organism-based, Canis lupus familiaris; conditions: in vivo
# Staphylococcus aureus [33] = assay: Antibacterial activity against methicillin-sensitive Staphylococcus aureus infected in Kunming mouse dosed subcutaneously at 0.5 and 4.0 hrs postinfection and measured at 7 to 14 days post treatment by Bliss method; type: functional; conditions: sc
# [34] = Volume of distribution at steady state in Beagle dog at 2.5 mg/kg, iv by LC-MS/MS analysis; type: ADME, organism-based, Canis lupus familiaris; conditions: in vivo, read-out: Vdss
# [35] = Oral bioavailability in Sprague-Dawley rat at 100 mg/kg by LC-MS/MS analysis; type: ADME, organism-based; conditions: in vivo
# [36] = Elimination half life in Sprague-Dawley rat at 100 mg/kg, po by LC-MS/MS analysis; type: ADME, organism-based; conditions: in vivo, read-out: beta t1/2 (converted)
# [37] = Volume of distribution at steady state in Sprague-Dawley rat at 10 mg/kg, iv by LC-MS/MS analysis; type: ADME, organism-based; conditions: in vivo, read-out: Vdss
# [38] = AUCt in Sprague-Dawley rat at 10 mg/kg, po by LC-MS/MS analysis; type: ADME, organism-based; conditions: in vivo
# Cytochrome P450 2D6 = Cytochrome P450 2D6 (Homo sapiens, UniProt P10635); assay: Inhibition of CYP2D6 in human liver microsomes using dextromethorphan as substrate preincubated for 10 mins followed by NADPH addition and measured for 15 mins by LC-MS/MS analysis; type: ADME
# Cytochrome P450 2D6, sequence (P10635 whole entry): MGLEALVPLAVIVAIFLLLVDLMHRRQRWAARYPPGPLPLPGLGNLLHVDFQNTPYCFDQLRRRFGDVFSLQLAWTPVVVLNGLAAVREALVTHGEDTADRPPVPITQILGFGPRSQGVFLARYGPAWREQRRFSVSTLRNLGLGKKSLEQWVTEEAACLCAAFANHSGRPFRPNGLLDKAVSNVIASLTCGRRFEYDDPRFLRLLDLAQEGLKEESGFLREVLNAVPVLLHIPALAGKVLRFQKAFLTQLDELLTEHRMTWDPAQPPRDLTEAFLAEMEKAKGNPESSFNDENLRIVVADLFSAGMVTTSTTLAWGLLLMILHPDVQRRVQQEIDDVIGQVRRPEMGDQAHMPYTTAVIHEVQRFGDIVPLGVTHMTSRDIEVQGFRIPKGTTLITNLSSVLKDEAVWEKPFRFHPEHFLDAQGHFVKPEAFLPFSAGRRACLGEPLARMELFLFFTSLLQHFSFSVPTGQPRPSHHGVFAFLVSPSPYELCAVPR
# [39] = Elimination half life in Sprague-Dawley rat at 10 mg/kg, iv by LC-MS/MS analysis; type: ADME, organism-based; conditions: in vivo, read-out: beta t1/2 (converted)
# Cytochrome P450 2C9 = Cytochrome P450 2C9 (Homo sapiens, UniProt P11712); assay: Inhibition of CYP2C9 in human liver microsomes using tolbutamide as substrate preincubated for 10 mins followed by NADPH addition and measured for 15 mins by LC-MS/MS analysis; type: ADME
# Cytochrome P450 2C9, sequence (P11712 whole entry): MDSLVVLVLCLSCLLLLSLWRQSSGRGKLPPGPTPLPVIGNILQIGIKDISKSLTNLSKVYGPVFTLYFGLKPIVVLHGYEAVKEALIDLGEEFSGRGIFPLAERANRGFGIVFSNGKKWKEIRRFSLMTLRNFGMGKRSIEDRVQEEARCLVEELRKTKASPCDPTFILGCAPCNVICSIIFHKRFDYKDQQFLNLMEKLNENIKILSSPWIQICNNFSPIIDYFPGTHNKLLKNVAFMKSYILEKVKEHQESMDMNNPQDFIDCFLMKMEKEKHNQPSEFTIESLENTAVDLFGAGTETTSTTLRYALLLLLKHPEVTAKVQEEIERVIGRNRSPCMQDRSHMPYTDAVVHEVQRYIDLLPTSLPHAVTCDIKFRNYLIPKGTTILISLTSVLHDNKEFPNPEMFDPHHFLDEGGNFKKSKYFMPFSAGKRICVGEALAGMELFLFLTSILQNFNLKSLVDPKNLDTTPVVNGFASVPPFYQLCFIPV
# [40] = Clearance in Beagle dog at 2.5 mg/kg, iv by LC-MS/MS analysis; type: ADME, organism-based, Canis lupus familiaris; conditions: in vivo
smiles,measurement,setting,value
C[C@@H]1CN2c3c(cc4c(N5CCOC5=O)noc4c3F)CC3(C(=O)NC(=O)NC3=O)[C@H]2[C@H](C)O1,half-life,[1],3.41 h
same,MIC,"Streptococcus pyogenes; Streptococcus pyogenes, read-out: MIC",0.25 to 0.5 µg/mL
same,solubility at 24 h,[2],139 µM
same,MIC,Streptococcus pneumoniae,0.25 to 1 µg/mL
same,solubility at 24 h,[3],121 µM
same,MIC,Staphylococcus aureus [4],0.03 to 1 µg/mL
same,Cmax,[5],183 ng/mL
same,MIC,[6],0.03 to 0.25 µg/mL
same,IC50,[7],> 200 µM
same,MIC,Staphylococcus aureus [8],0.125 to 0.25 µg/mL
same,solubility at 24 h,[9],128 µM
same,MIC50,Neisseria gonorrhoeae,0.03 µg/mL
same,MIC90,Neisseria gonorrhoeae,0.125 µg/mL
same,ED50,Staphylococcus aureus [10],11.5 mg/kg
same,Tmax,[11],0.58 h
same,IC50,DNA gyrase,24.3 µM
same,MRT,[12],7.06 h
same,MIC,[13],0.06 to 0.25 µg/mL
same,ED50,Staphylococcus aureus [14],11 mg/kg
same,AUC(0-t),[15],748 ng·h/mL
C[C@@H]1CN2c3c(cc4c(N5CC6(CC6)OC5=O)noc4c3F)CC3(C(=O)NC(=O)NC3=O)[C@H]2[C@H](C)O1,half-life,[16],3.71 h
same,half-life,[1],6.2 h
same,Cmax,[17],2860 ng/mL
same,MIC,Streptococcus pyogenes,<0.03 µg/mL
same,solubility at 24 h,[2],204 µM
same,IC50,Cytochrome P450 3A4 [18],> 25 µM
same,half-life,[19],3.65 h
same,Cmax,[20],35400 ng/mL
same,Cmax,[21],2260 ng/mL
same,AUC(0-t),[22],9100 ng·h/mL
same,IC50,Cytochrome P450 2C19,> 25 µM
same,bioavailability,[23],22.6%
same,solubility at 24 h,[3],151 µM
same,IC50,Cytochrome P450 3A4 [24],> 25 µM
same,AUC(0-t),[25],478000 ng·h/mL
same,IC50,Cytochrome P450 1A2,13 µM
same,Cmax,[5],2580 ng/mL
same,IC50,[26],> 40 µM
same,bioavailability,[27],96.6%
same,IC50,[7],> 200 µM
same,ED50,Staphylococcus aureus [28],3.87 mg/kg
same,clearance,[29],1.57 mL/min/kg
same,AUC(0-t),[30],104000 ng·h/mL
same,half-life,[31],3.49 h
same,MIC,Staphylococcus aureus [8],≤ 0.03 µg/mL
same,AUC(0-t),[32],17500 ng·h/mL
same,solubility at 24 h,[9],277 µM
same,ED50,Staphylococcus aureus [33],8.37 mg/kg
same,MIC50,Neisseria gonorrhoeae,0.06 µg/mL
same,MIC90,Neisseria gonorrhoeae,0.125 µg/mL
same,Vd,[34],1 L/kg
same,bioavailability,[35],45.8%
same,Tmax,[11],2.67 h
same,half-life,[36],5.58 h
same,IC50,DNA gyrase,7.8 µM
same,Vd,[37],0.482 L/kg
same,AUC(0-t),[38],23600 ng·h/mL
same,IC50,Cytochrome P450 2D6,> 25 µM
same,MRT,[12],8.94 h
same,half-life,[39],3.82 h
same,IC50,Cytochrome P450 2C9,> 25 µM
same,AUC(0-t),[15],24200 ng·h/mL
same,clearance,[40],4.91 mL/min/kg
